Reference: publication PMC3571899, “M48U1 CD4 mimetic has a sustained inhibitory effect on cell-associated HIV-1 by attenuating virion infectivity through gp120 shedding” (Retrovirology, 2013)

Key:
HIV-1 Bal [1] = assay: Antiviral EC50 in PBMCs against HIV-1 Bal; type: cell-based; conditions: linear regression analysis, one experiment with 6 replicates
HIV-1 Bal [2] = assay: Infectivity of de novo virus from pretreated, washed infected PBMCs (memory effect); type: cell-based; conditions: for relative titer of de novo produced virions: PBMCs pretreated 24 h at 100x EC50, washed, 24 h drug-free, titrated on TZM-bl cells with equal p24, relative to untreated control
Experimental: Figure 1 M48U1 has a memory effect on cell-associated virus. A) The Trojan Horse transmission concept was modeled in vitro using HIV-infected PBMCs which were treated for 24 h with antiretrovirals (ARVs) from different classes at 100x EC50 concentrations. Subsequently, virus production was quantified using a Gag p24 ELISA. To mimic escape from vaginal drug pressure, the infected cells were then incubated in ARV-free medium for three consecutive periods of 24 h. Infectivity of newly produced virions was determined after each period by titration in TZM-bl cells and PBMCs using equal amounts of p24. B) Production of Gag p24 by infected PBMCs during 24 h treatment with eleven ARVs: the non-nucleoside reverse transcriptase inhibitors (NNRTIs; blue) UC781 and TMC120, the nucleotide reverse transcriptase inhibitor tenofovir (PMPA; red), the entry inhibitors (grey) maraviroc (MVC), T-20, C34-chol, griffithsin (GRFT) and M48U1, the protease inhibitors (green) lopinavir (LPV) and saquinavir (SQV), and the integrase inhibitor raltegravir (RAL). Values are expressed relative to untreated control cultures and represent the mean +/− SEM of at least three independent experiments, each carried out in triplicate. C) Bal infectivity of de novo produced virus by pretreated infected PBMCs in absence of drug during three consecutive periods of 24 h. Values are expressed relative to untreated control cultures and represent the mean +/− SEM of at least three independent experiments, each carried out in triplicate. D) Infectivity of de novo produced transmitted/founder viruses REJO and THRO (subtype B) and Bal by M48U1 treated infected PBMCs in absence of drug during three consecutive periods of 24 h. Values are expressed relative to untreated control cultures. E) Infectivity of wild type (black) and M48U1-resistant (red) Bal virus produced during a 24 h period in absence of drug by pretreated infected PBMCs. Values represent the 50% Tissue Culture Infective Dose (TCID50)/ml as measured in one experiment carried out in triplicate.
(§1) PHA/IL-2 stimulated PBMCs were infected with 2 x 10^-3 multiplicity of infection (MOI) of the CCR5-tropic subtype B strain Bal for three days and subsequently washed extensively to remove the inoculum (Figure 1A). Next, cells were incubated for 24 hours with ARVs from different classes at 100x EC50 concentrations for each compound (Table 1). The virions produced from these cultures were then quantified in quadruplicate by a Gag p24 capture ELISA [18].
Next, we evaluated whether these ARVs affected the infectivity of the virus produced. PBMCs were infected as described above and were washed extensively to remove inhibitor and incubated in fresh medium for a new round of viral replication. After 24 h, supernatant was harvested, and then assessed for its ability to infect TZM-bl cells using identical viral inocula (based on equal amounts of Gag p24). The obtained viral titers were expressed as a percentage, relative to the untreated control cultures (Figure 1C). […] A smaller loss in titer was observed after treatment with the PIs saquinavir (relative titer of 47%) and lopinavir (relative titer of 14%), and the carbohydrate binding protein griffithsin (relative titer of 31%). The same samples were assayed in a multi-cycle infectivity assay with PBMCs, with similar results (Figure 1C). […]

HIV-1 Bal infected PBMCs = assay: Gag p24 production by infected PBMCs during 24 h ARV treatment (p24 capture ELISA); type: cell-based; conditions: 24 h treatment at 100x EC50, Gag p24 capture ELISA
Experimental: Figure 1 M48U1 has a memory effect on cell-associated virus. A) The Trojan Horse transmission concept was modeled in vitro using HIV-infected PBMCs which were treated for 24 h with antiretrovirals (ARVs) from different classes at 100x EC50 concentrations. Subsequently, virus production was quantified using a Gag p24 ELISA. To mimic escape from vaginal drug pressure, the infected cells were then incubated in ARV-free medium for three consecutive periods of 24 h. Infectivity of newly produced virions was determined after each period by titration in TZM-bl cells and PBMCs using equal amounts of p24. […] Values represent the 50% Tissue Culture Infective Dose (TCID50)/ml as measured in one experiment carried out in triplicate.
as §1, with “Next, cells were incubated for 24 hours with ARVs from different classes at 100x EC50 concentrations for each compound (Table 1).” left out

H9+ cells = conditions: pretreatment of infected cells, syncytium formation; cited from earlier work
Source text: We hypothesized that M48U1 associates with gp120 molecules expressed on the cell membrane of infected cells prior to viral budding. If M48U1 dissociates very slowly from its target and is retained after washing, this could cause the production of defective virions. However, if this were the case, one would expect a similar attenuation effect for the tight-binding RT inhibitors UC781 and TMC120.

[3] = Human immunodeficiency virus 1, PBMC

Molecule	EC50 (HIV-1 Bal [1]; [3]) [nM]	relative titer of de novo produced virions (HIV-1 Bal [2]) [%]	lower Gag p24 concentration in culture supernatant vs untreated control (HIV-1 Bal infected PBMCs)	reduction in the infectivity of de novo produced virus (H9+ cells)	EC50 (HIV-1 Bal [1]) [nM]	times less infectious than virions from control cultures (HIV-1 Bal [2]; 72 hours post-exposure, TZM-bl cells and PBMCs)
Cc1cc(C)c(Nc2ccnc(Nc3ccc(C#N)cc3)n2)c(C)c1 [Dapivirine (TMC120)]	5					
Cc1cccc(C)c1OCC(=O)N[C@@H](Cc1ccccc1)[C@@H](O)C[C@H](Cc1ccccc1)NC(=O)[C@H](C(C)C)N1CCCNC1=O [Lopinavir (LPV)]	40	14	0.5-1 log			
Cc1nnc(C(=O)NC(C)(C)c2nc(C(=O)NCc3ccc(F)cc3)c(O)c(=O)n2C)o1 [Raltegravir (RLT)]	18					
CC(C)(C)NC(=O)[C@@H]1C[C@@H]2CCCC[C@@H]2CN1C[C@@H](O)[C@H](Cc1ccccc1)NC(=O)[C@H](CC(N)=O)NC(=O)c1ccc2ccccc2n1 [Saquinavir (SQV)]	35	47	0.5-1 log			
C[C@H](Cn1cnc2c(N)ncnc21)OCP(=O)(O)O [Tenofovir (TFV)]	4800					
CC(C)=CCOc1cc(NC(=S)c2ccoc2C)ccc1Cl [UC781]	35	75		fivefold reduction		
Griffithsin (GRFT): carbohydrate binding protein, binds glycans on gp120		31			1.5	two
